Test systems include UACC-62 melanoma; HOP-62 NSCLC; SF-295 CNS; DU-145 prostate; SW-620 colon; MOLT-4 leukemia; A498 renal; HCT-15 colon; SNB-75 CNS; SK-OV-3 ovarian.
What all share (assay): inhibition of tumour cell growth, NCI panel, 48 h

Each structure is given as a SMILES string. “And” between values parts separate entries of the source, which are not always exact repeats. Equal entries are not always repeated.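 Method: 48-hour compound exposure of cells in 96-well plates, five concentrations, linear interpolation of endpoints. GI50 = concentration required for 50% inhibition of growth. Definition used: TGI = concentration required for complete inhibition of growth.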

Regarding `CSc1nnnc2ccccc12`, the TGI with UACC-62 melanoma, in the test on HOP-62 NSCLC, with SF-295 CNS, in the test on DU-145 prostate, in the test on SW-620 colon and in the test on MOLT-4 leukemia was more than 100 µM in each case. The TGI with A498 renal, with HCT-15 colon, in the test with SNB-75 CNS and in the test on SK-OV-3 ovarian was more than 100 µM throughout.
Regarding `CCOC(=O)c1ccc2nc3n(c2c1)C(c1c(F)cccc1F)SC3` (stereo unspecified), the TGI with UACC-62 melanoma, in the test with HOP-62 NSCLC, with SF-295 CNS, in the test with DU-145 prostate, in the test on SW-620 colon and in the test with MOLT-4 leukemia was more than 100 µM throughout. The TGI in the test with A498 renal, in the test on HCT-15 colon, in the test with SNB-75 CNS and with SK-OV-3 ovarian was more than 100 µM throughout.
On to `C=CC(=O)N1C/C(=C\c2ccc(OC)cc2)C(=O)/C(=C/c2ccc(OC)cc2)C1`, for which the TGI in the test on UACC-62 melanoma was 4.37 µM; in the test on HOP-62 NSCLC, 11.2 µM; in the test with SF-295 CNS, 6.98 µM; in the test with DU-145 prostate, 23.1 µM; in the test on SW-620 colon, 8.02 µM; in the test with MOLT-4 leukemia it was more than 27.8 µM. Moreover, the TGI in the test on A498 renal came out at 3.54 µM; with HCT-15 colon it was 4.23 µM; with SNB-75 CNS, 27.3 µM; in the test on SK-OV-3 ovarian it was 8.39 µM.
For the compound `CC1(C)CCCCCC(O)C(O)CCC(C)(C)C1=O` (stereo unspecified), the TGI in the test on UACC-62 melanoma, with HOP-62 NSCLC, with SF-295 CNS, in the test on DU-145 prostate, in the test on SW-620 colon and in the test on MOLT-4 leukemia was more than 100 µM in each case. In addition, the TGI in the test with A498 renal, in the test on HCT-15 colon, in the test with SNB-75 CNS and with SK-OV-3 ovarian was more than 100 µM each time.
As to `CCOC(=O)c1nc2ccccc2nc1Nc1ccc(C(=O)OC)s1`, the TGI in the test on UACC-62 melanoma, in the test on HOP-62 NSCLC, in the test with SF-295 CNS, in the test with DU-145 prostate, in the test on SW-620 colon and in the test with MOLT-4 leukemia was more than 100 µM in each case. In addition, the TGI in the test on A498 renal, in the test with HCT-15 colon and in the test on SNB-75 CNS was more than 100 µM throughout.
For `CC(=O)NC1C(OCc2ccccc2)OC(CO)C(O)C1OC(C)C(=O)NC(C(=O)NC(CCC(=O)NCCCNc1ccc([N+](=O)[O-])c2[nH]c3ccccc3c(=O)c12)C(N)=O)C(C)C` (stereo unspecified), the TGI with UACC-62 melanoma, with HOP-62 NSCLC, with SF-295 CNS, in the test on DU-145 prostate, with SW-620 colon and in the test on MOLT-4 leukemia was more than 100 µM each time. The TGI in the test with A498 renal, with HCT-15 colon, with SNB-75 CNS and in the test on SK-OV-3 ovarian was more than 100 µM throughout.
Regarding `COc1ccc(NC(=O)CSC(=O)c2ccccc2)c(SCCSSCCSc2cc(OC)ccc2NC(=O)CSC(=O)c2ccccc2)c1`, the TGI in the test with UACC-62 melanoma, in the test with HOP-62 NSCLC, with SF-295 CNS, in the test with DU-145 prostate, with SW-620 colon and in the test on MOLT-4 leukemia was more than 100 µM throughout. The TGI in the test on A498 renal, in the test on HCT-15 colon, with SNB-75 CNS and in the test with SK-OV-3 ovarian was more than 100 µM throughout.
Turning to `N#Cc1ccc(-c2ccc(Cl)cc2)n(C2OC(CO)C(O)C(O)C2O)c1=S` (stereo unspecified), the TGI in the test with UACC-62 melanoma is more than 100 µM; in the test with HOP-62 NSCLC, > 100 µM and 36.3 µM; in the test on SF-295 CNS it was > 100 µM and 17.9 µM; in the test on DU-145 prostate it was more than 100 µM; with SW-620 colon it was more than 100 µM; with MOLT-4 leukemia it was more than 100 µM. Moreover, the TGI in the test with A498 renal was > 100 µM and 57.5 µM; in the test on HCT-15 colon, more than 100 µM; in the test with SNB-75 CNS, more than 100 µM. In addition, the GI50 was > 100 µM and 18.9 µM in the test on A498 renal; 43.1 µM and 19.8 µM in the test on SNB-75 CNS.
For the compound `COC(=O)/C=C1\C(CO[Si](C)(C)C(C)(C)C)OC(n2cc(C)c(=O)n(C)c2=O)C1O[Si](C)(C)C(C)(C)C` (stereo unspecified), the TGI in the test with UACC-62 melanoma, with HOP-62 NSCLC, with SF-295 CNS, in the test on DU-145 prostate, in the test with SW-620 colon and with MOLT-4 leukemia was more than 100 µM throughout. Besides, the TGI with A498 renal, with HCT-15 colon, in the test with SNB-75 CNS and in the test with SK-OV-3 ovarian was more than 100 µM throughout.
Regarding `CC1(C)CCC2=C(O1)c1ccccc1C(=Nc1ccc([N+](=O)[O-])cc1)C2=O`, the TGI in the test with UACC-62 melanoma was 30.9 µM; in the test on HOP-62 NSCLC, 34.1 µM; in the test with SF-295 CNS it was 29.9 µM; with DU-145 prostate it was 30.4 µM; in the test with SW-620 colon, 29.6 µM; with MOLT-4 leukemia, more than 100 µM. Also, the TGI was 33.6 µM in the test with A498 renal, more than 100 µM in the test on HCT-15 colon, 38.4 µM with SNB-75 CNS and 34.8 µM in the test with SK-OV-3 ovarian. The results for the GI50 with SF-295 CNS and in the test with DU-145 prostate were 14.9 µM and 16.8 µM, respectively.
Turning to `O=S(=O)(O)c1ccc(O)c(N=Nc2c(O)ccc3ccccc23)c1`, the TGI in the test with UACC-62 melanoma, in the test on HOP-62 NSCLC, in the test on SF-295 CNS, in the test with DU-145 prostate, in the test on SW-620 colon and in the test on MOLT-4 leukemia was more than 100 µM each time. Besides, the TGI in the test with A498 renal, in the test with HCT-15 colon, with SNB-75 CNS and in the test with SK-OV-3 ovarian was more than 100 µM throughout.
Turning to `CCCCCCCCCCCC(=O)N(CCCCCCCCC)CC(O)C(O)C(OC1OC(CO)C(O)C(O)C1O)C(O)CO` (stereo unspecified), the TGI with UACC-62 melanoma was 34.1 µM; in the test on HOP-62 NSCLC, 38.9 µM; with SF-295 CNS, 40 µM; with DU-145 prostate it was 33.8 µM; in the test on SW-620 colon, 35.1 µM; with MOLT-4 leukemia, 40.3 µM. In addition, the TGI stood at 39.5 µM in the test with A498 renal, 34.5 µM with HCT-15 colon and 34.3 µM in the test with SNB-75 CNS.
`N=C(N)SCc1nc(-c2ccc(Cl)cc2)no1`: the TGI with UACC-62 melanoma is 24.4 µM; in the test with HOP-62 NSCLC it was more than 100 µM; in the test with SF-295 CNS, more than 100 µM; with DU-145 prostate, 63 µM; in the test on SW-620 colon, 37.2 µM; with MOLT-4 leukemia it was 22.6 µM. For the same compound, the TGI is 32.3 µM in the test on A498 renal, 55.9 µM in the test on HCT-15 colon, 59.4 µM in the test with SNB-75 CNS and more than 100 µM in the test with SK-OV-3 ovarian.

The values are drawn from PubChem BioAssay (NCI).
